From patent US10800776B2, “Fluorine-containing triazolopyridine, and manufacturing method, pharmaceutical composition, and application thereof” (SHANGHAI INSTITUTE OF MATERIA MEDICA, CHINESE ACADEMY OF …, priority 2016, dated 2020)

Experiments:
[1] = tested on: ICR mice; assay: Mouse swimming depression test; type: in vivo; settings: for non-movement time (%) Mean ± SEM: positive control, 10 mg/kg, intraperitoneal, 0.5 hours before test
Procedure: Experiment objectives: to observe the effect of the test compound on the depressive status of mice
Experimental animals: ICR mice, 20-28 g, both male and female
Experimental equipment: plexiglass tube: cylindrical, 25 cm high, 15 cm inner diameter
Sample treatment: The test compounds were ground with 1% CMC (sodium carboxymethyl cellulose) to prepare a homogeneous solution. In vivo dose was 5 mg/kg, 10 mg/kg and 20 mg/kg, the compound was orally administrated at 0.1 ml/10 g volume/body weight. Positive control drugs (amitriptyline and fluoxetine) were dissolved with 0.9% saline, in vivo dose was 10 mg/kg, intraperitoneal injected at 0.1 ml/10 g volume/body weight. (Note: mice were given the compound after fasted for 8 hours without water-fasted.)
Experimental principle: The mouse is placed in a limited space which can not escape to swim, thus inducing animals to non-movement state which reflects the animal's desperate behavior.
Experimental Methods: mice were grouped randomly, 15 minutes swimming depression was modeled at the first day, and equivalent mice were selected. The second day of the test, 1 hour after the animals were orally administered the compound (0.5 hours after intraperitoneal injection) and then the animals were put in water to record the non-movement time in the later 4 min of 6 min.

[2] = biological target: hERG potassium channel (Homo sapiens (Human), UniProt Q12809); assay: hERG potassium channel toxicity assay (hERG patch clamp); type: cell-based; settings: for IC50: hERG patch clamp; for inhibition at 40 µM: at maximum concentration 40 μM
Procedure: Experimental method: hERG patch clamp detection method
Experimental procedure: Compound preparation: the stock solution of a compound was diluted with extracellular fluid, 2 μL of the compound stock solution was added to 998 μL extracellular fluid, and then serially diluted 5 times in an extracellular fluid containing 0.2% DMSO to obtain the final concentration to be tested.

[3] = biological target: mGluR2 (Homo sapiens (Human), UniProt Q14416); assay: In vitro activity test for mGluR2 (HDB Fluo-8 calcium fluorescence, HEK/mGluR2 cell line); type: cell-based
Source text: Experimental materials: HEK/mGluR2 cell line (human […] transfected HEK cell line), DMEM (FBS) medium, positive control LY487379 (purchased from sigma; CAS: to 352317-17-1)
Experimental instrument: FLIPR Tetra real-time fluorescence imaging analysis system
Experimental method: HDB Fluo-8 calcium fluorescence detection method
Experimental principle: HDB Fluo-8 calcium ion fluorescence detection method is a fast, simple and reliable fluorescence detection method of intracellular calcium concentration changes. The Fluo 8-AM fluorescent dye is an acetyl methyl ester derivative of Fluo 8 which can easily penetrate into the cell membrane by culture. The fluorescent dye in the cell will be hydrolyzed by intracellular esterase, the resulting Fluo 8 as a polar molecule, cannot easily pass through the lipid bimolecular membrane, and will be retained in the cell, and combine with calcium (Ca^2+) to produce fluoresces.
Cells expressing GPCR receptor protein (mGluR2) were first calibrated with a calcium ion sensitive fluorescent probe and then stimulated with the compound. After stimulation, the receptor activates the calcium ion mobilization, and the fluorescent probe captures the calcium ion to induce the fluorescence signal. The signal can be read by a fluoroscopy plate. The fluorescent plate reader contains a sample addition for compound addition, thus enabling the change of the fluorescence value of the compound be read in real time.

[4] = tested on: C57BL/6 mice; assay: Mouse open field experiment; type: in vivo
Procedure: Experiment objectives: to observe the anti-anxiety effect of the test compound on the mice by open field experiment.
Experimental animals: male C57BL/6 mice, 10 weeks old, purchased from Beijing Huafukang Biotechnology Co., Ltd.
Animal rearing: The temperature in the animal room was maintained at 20-25° C., the humidity was maintained at 40-70%, and the photoperiod was 12 hours light and 12 hours dark. During feeding, the mice were housed in standard mouse cages, with colored labels on each cage clearly indicating the item number, and the basic information such as the responsible person, group, animal number and animal gender. All animals were given free access to pure water and standard certified rodent feed. Before the start of the experiment, the experimental animals were adapted to the feeding environment for at least one week.
The compound to be tested, intraperitoneally administered, 30 mg/kg.
Experimental principle: Based on the instincts of rodents tending to avoid light and fear of exploring open fields. When the experimental animals were first placed in the open field, the central area was a potential threat to the animals, while the peripheral area was relatively safe, and rats and mice were more likely to move along the perimeter of the field. Therefore, if the animal is of high anxiety level, it tends to stay in the peripheral area. Conversely, the number and time of exploration in the central area will increase.
Experimental grouping and administration: Experimental animals were randomly divided into 5 groups as follows:
During the 30-minute test period, the total distance traveled by the experimental animals, the central area dwell time, and the percentage of the central area travel distance will be detected and recorded.

[5] = human, hERG, read-out: Inhibition rate (%)
[6] = 30 mg/kg i.p., 1 hour before, 30-minute test

mGluR2, sequence (Q14416 19-872): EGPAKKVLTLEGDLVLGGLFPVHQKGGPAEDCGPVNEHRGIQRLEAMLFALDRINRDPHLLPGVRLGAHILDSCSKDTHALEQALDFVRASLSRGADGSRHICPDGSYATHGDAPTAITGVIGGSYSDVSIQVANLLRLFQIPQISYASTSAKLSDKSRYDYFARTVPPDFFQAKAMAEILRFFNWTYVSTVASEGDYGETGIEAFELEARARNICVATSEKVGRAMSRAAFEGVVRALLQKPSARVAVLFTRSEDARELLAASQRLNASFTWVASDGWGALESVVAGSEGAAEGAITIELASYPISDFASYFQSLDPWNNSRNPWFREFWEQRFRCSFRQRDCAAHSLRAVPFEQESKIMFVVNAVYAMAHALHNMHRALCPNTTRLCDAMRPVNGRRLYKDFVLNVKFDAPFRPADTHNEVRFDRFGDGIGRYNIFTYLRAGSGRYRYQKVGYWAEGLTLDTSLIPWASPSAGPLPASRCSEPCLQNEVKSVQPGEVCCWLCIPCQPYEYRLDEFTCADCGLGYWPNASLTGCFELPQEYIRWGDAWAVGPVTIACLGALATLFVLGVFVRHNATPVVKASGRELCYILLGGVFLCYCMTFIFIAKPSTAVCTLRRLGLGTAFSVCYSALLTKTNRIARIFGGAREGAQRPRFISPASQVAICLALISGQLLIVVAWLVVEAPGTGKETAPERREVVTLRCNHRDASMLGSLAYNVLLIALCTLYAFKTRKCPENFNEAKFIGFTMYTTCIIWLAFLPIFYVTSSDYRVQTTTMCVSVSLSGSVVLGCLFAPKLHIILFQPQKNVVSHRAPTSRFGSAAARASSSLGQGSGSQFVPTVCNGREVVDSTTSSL
hERG potassium channel, sequence (Q12809 whole entry): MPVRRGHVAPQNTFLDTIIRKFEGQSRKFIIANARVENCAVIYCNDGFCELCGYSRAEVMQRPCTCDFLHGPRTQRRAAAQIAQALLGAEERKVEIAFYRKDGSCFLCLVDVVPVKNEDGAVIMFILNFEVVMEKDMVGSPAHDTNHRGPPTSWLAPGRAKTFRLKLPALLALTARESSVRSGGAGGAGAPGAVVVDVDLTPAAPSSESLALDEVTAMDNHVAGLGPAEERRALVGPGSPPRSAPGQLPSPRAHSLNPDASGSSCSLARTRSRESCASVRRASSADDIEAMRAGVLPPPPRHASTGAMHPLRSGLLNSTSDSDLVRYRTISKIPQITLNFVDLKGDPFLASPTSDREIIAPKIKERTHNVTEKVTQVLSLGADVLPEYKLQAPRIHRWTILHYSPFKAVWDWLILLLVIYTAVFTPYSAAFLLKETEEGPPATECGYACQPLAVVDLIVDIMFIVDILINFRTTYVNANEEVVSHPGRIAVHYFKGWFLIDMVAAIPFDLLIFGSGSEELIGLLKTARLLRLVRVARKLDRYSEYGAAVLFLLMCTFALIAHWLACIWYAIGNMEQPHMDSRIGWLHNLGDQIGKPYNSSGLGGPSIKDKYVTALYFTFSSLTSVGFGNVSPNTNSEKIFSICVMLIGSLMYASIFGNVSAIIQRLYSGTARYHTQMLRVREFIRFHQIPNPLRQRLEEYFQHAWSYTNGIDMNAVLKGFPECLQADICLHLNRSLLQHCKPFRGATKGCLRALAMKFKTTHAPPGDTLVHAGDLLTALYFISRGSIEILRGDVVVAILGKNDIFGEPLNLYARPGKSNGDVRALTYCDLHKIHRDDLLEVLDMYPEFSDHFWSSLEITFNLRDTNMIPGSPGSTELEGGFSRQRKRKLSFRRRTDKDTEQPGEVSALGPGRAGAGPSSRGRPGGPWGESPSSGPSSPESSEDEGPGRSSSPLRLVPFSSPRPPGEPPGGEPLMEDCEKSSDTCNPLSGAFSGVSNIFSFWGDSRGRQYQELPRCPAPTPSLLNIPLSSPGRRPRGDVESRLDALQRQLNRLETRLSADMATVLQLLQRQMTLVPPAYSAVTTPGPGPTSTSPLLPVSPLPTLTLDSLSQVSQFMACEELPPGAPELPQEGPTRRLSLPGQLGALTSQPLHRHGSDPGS

Compound	IC50 [2]	inhibition at 40 µM [2, 5]	EC50 [3]	other results
CN(C)CCC=C1c2ccccc2CCc2ccccc21 [Amitriptyline, reference compound]				"no movement time" of swimming in mice (in words) ([1]; mouse, in vivo): significantly improved; non-movement time (%) Mean ± SEM [1]: 5.32 ± 2.08 %
COC(=O)c1ccc(-c2ccn3c(CC4CC4(F)F)nnc3c2Cl)c(Cl)c1 (stereo not drawn) [Compound 46, Methyl 3-Chloro-4-(8-chloro-3-((2,2-difluorocyclopropyl)methyl)-[1,2,4]triazole[4,3-a]pyridine-7-yl)benzoate]	10800 nM	82.5%	230 nM	
Cc1cccc(-c2ccn3c(CC4CC4(F)F)nnc3c2)c1 (stereo not drawn) [Compound 10, 3-((2,2-difluorocyclopropyl)methyl)-7-(m-tolyl)-[1,2,4]triazole [4,3-a]pyridine]	> 40000 nM	38.1%	143 nM	
Fc1ccc(-c2ccn3c(CC4CC4(F)F)nnc3c2)cc1 (stereo not drawn) [Compound 13, 3-((2,2-difluorocyclopropyl)methyl)-7-(4-fluorophenyl)-[1,2,4]triazole [4,3-a]pyridine]	31900 nM	52.8%	381 nM	
FC1(F)CC1Cc1nnc2cc(-c3ccc4c(c3)OCO4)ccn12 (stereo not drawn) [Compound 35, 7-(Benzo[d][1,3]dioxol-5-yl)-3-((2,2-difluorocyclopropyl)methyl)-[1,2,4]triazole [4,3-a]pyridine]	> 40000 nM	40%	108 nM	Central area dwell time (s) Mean ± SEM [4, 6]: 102.6 ± 20.8 s; Central area traveling distance percentage (%) Mean ± SEM [4, 6]: 15.41 ± 1.99%; Total moving distance (cm) Mean ± SEM [4, 6]: 3491.2 ± 650.6 cm
CC(C)(O)c1ccc(-c2ccn3c(CC4CC4(F)F)nnc3c2)cc1 (stereo not drawn) [Compound 21, 2-(4-(3-((2,2-difluorocyclopropyl)methyl)-[1,2,4]triazole[4,3-a]pyridin-7-yl)phenyl)propan-2-ol]	31900 nM	52.8%	226 nM	
Fc1cccc(-c2ccn3c(CC4CC4(F)F)nnc3c2Cl)c1 (stereo not drawn) [Compound 37, 8-chloro-3-((2,2-difluorocyclopropyl)methyl)-7-(3-fluorophenyl)-[1,2,4] triazole[4,3-a]pyridine]	15000 nM	57%	190 nM	
Cc1cc(-c2ccn3c(CC4CC4(F)F)nnc3c2)ccc1F (stereo not drawn) [Compound 27, 3-((2,2-difluorocyclopropyl)methyl)-7-(4-fluoro-3-methylphenyl)-[1,2,4] triazole[4,3-a]pyridine]	> 40000 nM	49.9%	868 nM	
CN1C(=O)CN=C(c2ccccc2)c2cc(Cl)ccc21 [Diazepam, reference compound]				anti-anxiety effect in the open field experiment ([4]; mouse, in vivo): very significant anti-anxiety effect
CNCCC(Oc1ccc(C(F)(F)F)cc1)c1ccccc1 (stereo not drawn) [Fluoxetine, reference compound]				non-movement time (%) Mean ± SEM [1]: 33.98 ± 9.84 %
COc1ccc(-c2ccn3c(CC4CC4(F)F)nnc3c2)cc1F (stereo not drawn) [Compound 23, 3-((2,2-difluorocyclopropyl)methyl)-7-(3-fluoro-4-methoxyphenyl)-[1,2,4] triazole[4,3-a]pyridine]	> 40000 nM	46%	849 nM	
Cc1cccc(-c2ccn3c(CC4CC4(F)F)nnc3c2Cl)c1 (stereo not drawn) [Compound 36, 8-chloro-3-((2,2-difluorocyclopropyl)methyl)-7-(m-tolyl)-[1,2,4] triazole[4,3-a]pyridine]	> 40000 nM	48.9%	130 nM	
COc1ccccc1Oc1ccc(N(Cc2cccnc2)S(=O)(=O)CC(F)(F)F)cc1 [LY487379, reference compound]			230 nM	
FC1(F)CC1Cc1nnc2c(Cl)c(-c3ccc4c(c3)CCO4)ccn12 (stereo not drawn) [Compound 47, 8-chloro-3-((2,2-difluorocyclopropyl)methyl)-7-(2,3-benzodihydrofuran-5-yl)-[1,2,4]triazole[4,3-a]pyridine]	4880 nM	96.4%	215 nM	
Cc1cc(F)ccc1-c1ccn2c(CC3CC3(F)F)nnc2c1Cl (stereo not drawn) [Compound 41, 8-chloro-3-((2,2-difluorocyclopropyl)methyl)-7-(4-fluoro-2-methylphenyl)-[1,2,4]triazole[4,3-a]pyridine]	11200 nM	80.1%	856 nM	
COc1ccc(-c2ccn3c(CC4CC4(F)F)nnc3c2Cl)cc1F (stereo not drawn) [Compound 44, 8-chloro-3-((2,2-difluorocyclopropyl)methyl)-7-(3-fluoro-4-methoxyphenyl)-[1,2,4]triazole[4,3-a]pyridine]	16100 nM	64.5%	118 nM	
FC1(F)CC1Cc1nnc2cc(-c3cccc4c3OCC4)ccn12 (stereo not drawn) [Compound 32, 3-((2,2-difluorocyclopropyl)methyl)-7-(2,3-benzodihydrofuran-7-yl)-[1,2,4]triazole[4,3-a]pyridine]	> 40000 nM	51%	825 nM	
FC1(F)CC1Cc1nnc2cc(-c3ccc4c(c3)CCO4)ccn12 (stereo not drawn) [Compound 31, 3-((2,2-difluorocyclopropyl)methyl)-7-(2,3-benzodihydrofuran-5-yl)-[1,2,4]triazole[4,3-a]pyridine]	> 40000 nM	48.1%	368 nM	
Fc1cccc(-c2ccn3c(CC4CC4(F)F)nnc3c2)c1 (stereo not drawn) [Compound 11, 3-((2,2-Difluorocyclopropyl)methyl)-7-(3-fluorophenyl)-[1,2,4]triazole [4,3-a]pyridine]	> 40000 nM	45.9%	704 nM	
COc1cc(N)c(Cl)cc1C(=O)NC1CCN(CCCOc2ccc(F)cc2)CC1OC (stereo not drawn) [Cisapride, reference compound]				inhibition at 3 µM ([2]; human, hERG, positive compound, maximum test concentration 3 μM, read-out: Inhibition rate (%)): 96.6%
Cc1cc(F)ccc1-c1ccn2c(CC3CC3(F)F)nnc2c1 (stereo not drawn) [Compound 26, 3-((2,2-difluorocyclopropyl)methyl)-7-(4-fluoro-2-methylphenyl)-[1,2,4] triazole[4,3-a]pyridine]	> 40000 nM	49.4%	781 nM	
COC(=O)c1ccc(-c2ccn3c(CC4CC4(F)F)nnc3c2)c(F)c1 (stereo not drawn) [Compound 29, Methyl 4-(3-((2,2-difluorocyclopropyl)methyl)-[1,2,4]triazolo[4,3-a]pyridin-7-yl)-3-fluorobenzonate]	17300 nM	62.4%	541 nM	
FC1(F)CC1Cc1nnc2cc(-c3cccc4cccnc34)ccn12 (stereo not drawn) [Compound 34, 8-(3-((2,2-difluorocyclopropyl)methyl)-[1,2,4]triazole[4,3-a]pyridin-7-yl)quinoline]	> 40000 nM	36%	612 nM	
